Counter-ions that a name gives are not always drawn.
What was measured:
substance P = assay: In vivo functional test, neurogenic inflammation model: antidromic stimulation of the saphenous nerve, Evans blue tissular extravasation
Source text: The test entailed creating a neurogenic inflammation by the antidromic stimulation of the saphenous nerve in the anaesthetized animal. This nerve innervates the cutaneous regions of the hind paws. The stimulation causes the release from the nerve endings of substance P, which is partially responsible for the neurogenic inflammation. The neurogenic inflammation was quantified by measuring the tissular permeability with Evans blue, a marker for the tissular extravasation of plasma albumin which occurs during inflammation. This reference model was used in the in vivo search for substance P antagonists. […] Dose Effect of Salbutamol in the Antidromic Stimulation Model Presented in Example 1

sensitive skins = assay: Test with capsaicin: topical application of capsaicin cream, appearance of subjective signs; assay type: in vivo, human; settings: 0.05 ml cream with 0.075% capsaicin on approx. 4 cm^2 of skin; subjects with sensitive skins
Protocol: In order to determine if a skin is sensitive or not, the assignee hereof has also developed a test.
The test with capsaicin entails topically applying,. to approximately 4 cm^2 of skin, 0.05 ml of a cream comprising 0.075% of capsaicin and in noting the appearance of subjective signs caused by this application, such as smarting, burning sensations and itching.

[1] = 1 μmol, Table I, mean of 8 experiments, p < 0.001

CC(C)(C)NCC(O)COc1cccc2[nH]c(=O)[nH]c12 (centres unmarked) [CGP12177.HCl]
% of inhibition (substance P; [1]): 77%
Concentration (μg/ml of Evans blue) (substance P; 1 μmol, mean of 8 experiments, expressed as Evans blue, n.d.: not detected, control 5.98 ± 0.65): 1.37 ± 0.32 µg/mL

CC(C)NCC(O)c1ccc(O)c(O)c1 (centres unmarked) [Isoproterenol]
% of inhibition (substance P; [1]): 100%

CC(CCc1ccccc1)NC(C)C(O)c1ccc(O)cc1 (centres unmarked) [Nylidrin.HCl]
% of inhibition (substance P; [1]): 95%

CC(C)(C)NCC(O)c1ccc(O)c(CO)c1 (centres unmarked) [Salbutamol]
% of inhibition (substance P; [1]): 100%
activity with respect to the release of substance P, dose dependence (substance P; 0.1 to 100 nmol): dose dependent
% of inhibition (substance P; Table II, dose 0.1 nmol, n.s. (not significant)): 17%
% of inhibition (substance P; Table II, dose 1 nmol, p < 0.05): 65%
% of inhibition (substance P; Table II, dose 10 nmol, p < 0.01): 80%
% of inhibition (substance P; Table II, dose 100 nmol, p < 0.01): 100%
activity relative to that of the reference molecule, Spantide II (substance P; antidromic stimulation model): approximately 30 times

COc1cc(CNC(=O)CCCC/C=C/C(C)C)ccc1O [capsaicin]
erythema following subjective signs (sensitive skins): followed by the appearance of an erythema

Spantide II
% of inhibition (substance P; 30 nmol, Table I, mean of 8 experiments, p < 0.01): 59%
% of inhibition (substance P; Table II, dose 30 nmol, p < 0.01): 67%
